In patent US20060148840A1, “Pyrrolodihydroisoquinolines as pde10 inhibitors” (Altana Pharma AG, priority 2003, published 2006):

| melting point | SMILES |
| --- | --- |
| 101 to 102 °C | CCOC(=O)c1c(-c2cccc(N(C)C)c2)c(C)n2c1-c1cc(OC)c(OC)cc1CC2(C)C [Example 4, 2-(3-Dimethylamino-phenyl)-8,9-dimethoxy-3,5,5-trimethyl-5,6-dihydro-pyrrolo[2,1-a]isoquinoline-1-carboxylic acid ethyl ester] |
| 177 to 179 °C | COC(=O)c1c(-c2cc(C)c(O)c(C)c2)c(C)n2c1-c1cc(OC)c(OC)cc1CC2C (centres unmarked) [Example 65, 2-(4-Hydroxy-3,5-dimethyl-phenyl)-8,9-dimethoxy-3,5-dimethyl-5,6-dihydro-pyrrolo[2,1-a]isoquinoline-1-carboxylic acid methyl ester] |
| 187 to 189 °C | COc1cc2c(cc1OC)-c1c(C#N)c(-c3ccnc(C)c3)c(C)n1C(C)C2 (centres unmarked) [Example 45, 8,9-Dimethoxy-3,5-dimethyl-2-(2-methyl-pyridin-4-yl)-5,6-dihydro-pyrrolo[2,1-a]isoquinoline-1-carbonitrile] |
| 226 to 229 °C | COc1cc2c(cc1OC)-c1c(C#N)c(-c3cccc4ccccc34)c(C)n1CC2 [Example 22, 8,9-Dimethoxy-3-methyl-2-naphthalen-1-yl-5,6-dihydro-pyrrolo[2,1-a]isoquinoline-1-carbonitrile] |
| 219 to 221 °C | COc1cc2c(cc1OC)-c1c(C#N)c(-c3cn(S(C)(=O)=O)c4ccccc34)c(C)n1C(C)C2 (centres unmarked) [Example 40, 2-(1-Methanesulfonyl-1H-indol-3-yl)-8,9-dimethoxy-3,5-dimethyl-5,6-dihydro-pyrrolo[2,1-a]isoquinoline-1-carbonitrile] |
| 191 to 193 °C | COC(=O)CCc1c(-c2ccncc2)c(C#N)c2n1CCc1cc(OC)c(OC)cc1-2 [Example 29, 3-(1-Cyano-8,9-dimethoxy-2-pyridin-4-yl-5,6-dihydro-pyrrolo[2,1-a]isoquinolin-3-yl)-propionic acid methyl ester] |
| 232 to 234 °C | CCOc1cc2c(cc1OC)-c1c(C#N)c(-c3cc(C)c(O)c(C)c3)c(C)n1C(C)C2 (centres unmarked) [Example 53, 8-Ethoxy-2-(4-hydroxy-3,5-dimethyl-phenyl)-9-methoxy-3,5-dimethyl-5,6-dihydro-pyrrolo[2,1-a]isoquinoline-1-carbonitrile] |
| 183 to 185 °C | COc1cc2c(cc1OC)-c1c(C)c(-c3cc(C)c(O)c(C)c3)c(C)n1CC2 [Example 68, 4-(8,9-Dimethoxy-1,3-dimethyl-5,6-dihydro-pyrrolo[2,1-a]isoquinolin-2-yl)-2,6-dimethyl-phenol] |
